Assay results as given in patent US20230210790A1, “GEL FOR USE IN GASTROINTESTINAL ENDOSCOPY AND ENDODERMAL, EPIDERMAL, AND OTHER MUCOSAL USES” (The Johns Hopkins University, priority 2020, published 2023).

Tested on: bleeding ulcers in a live porcine model
Assay: In vivo bleeding control by injectable gel, porcine bleeding model
Parameters: species or system Yorkshire pigs
Conditions: 5 mL injected adjacent to bleeding ulcer
Procedure: To test the efficacy of epinephrine gels for bleeding control, a porcine bleeding model was created.
After ulcer creation, gel formulations or saline (negative control), epinephrine 1:10,000 (positive control) of 5 mL each were injected adjacent to the bleeding ulcer.

CNC[C@H](O)c1ccc(O)c(O)c1 [Epinephrine 1:10,000, Epinephrine]
No: Time at 5 min, bleeding present | Time at 10 min, bleeding present | Time at 15 min, bleeding present
